In PubChem BioAssay (NCI):
Where “and” joins values, the source holds several entries; their conditions need not be identical. Identical values can stand only once.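 Method: 48-hour compound exposure of cells in 96-well plates, five concentrations, linear interpolation of endpoints. GI50 = concentration required for 50% inhibition of growth. TGI marks complete inhibition of growth.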

Experiments:
Assay in all cases: NCI-60 cell line screen, 48 h
[1] = test system: 786-0 renal
[2] = test system: CAKI-1 renal
[3] = test system: NCI-H522 lung
[4] = test system: OVCAR-4 ovarian
[5] = test system: NCI/ADR-RES ovarian
[6] = test system: BT-549 breast
[7] = test system: NCI-H226 lung
[8] = test system: CCRF-CEM leukemia
[9] = test system: UACC-62 melanoma
[10] = test system: A549 NSCLC
[11] = test system: ACHN renal
[12] = test system: SNB-75 CNS
[13] = test system: NCI-H460 lung
[14] = test system: SK-MEL-2 melanoma
[15] = test system: KM12 colon
[16] = test system: MDA-MB-231 breast

COc1ccc(Nc2[nH]c(C(C)=O)c(N)c2C(=S)Nc2ccccc2)cc1
TGI [1]: > 100 µM | TGI [2]: > 100 µM | TGI [3]: > 100 µM | TGI [4]: > 100 µM | TGI [5]: > 100 µM | TGI [6]: > 100 µM | TGI [7]: > 100 µM | TGI [8]: > 100 µM | TGI [9]: 95.7 µM | TGI [10]: > 100 µM | TGI [11]: > 100 µM | TGI [12]: > 100 µM | TGI [13]: > 100 µM | TGI [14]: > 100 µM | TGI [15]: > 100 µM | TGI [16]: > 100 µM

CCCCN(CC)c1nc(C)nc2c1c(C)c(C)n2-c1c(C)cc(C)cc1C
TGI [1]: 30.5 µM | TGI [2]: 30.2 µM | TGI [3]: 25.7 µM | TGI [4]: 37.9 µM | TGI [5]: 27.6 µM | TGI [6]: 34.3 µM | TGI [7]: 30.1 µM | TGI [8]: 32.7 µM | TGI [10]: 30.2 µM | TGI [11]: 28.1 µM | TGI [12]: 27.4 µM | TGI [13]: 27.5 µM | TGI [14]: 25.7 µM | TGI [15]: 36.3 µM | TGI [16]: 29.1 µM

CCCN=C1CC(C)Nc2ccccc2N1 (stereo not drawn)
TGI [1]: > 100 µM | TGI [2]: > 100 µM | TGI [3]: > 100 µM | TGI [4]: > 100 µM | TGI [5]: > 100 µM | TGI [6]: > 100 µM | TGI [7]: > 100 µM | TGI [8]: > 100 µM | TGI [9]: > 100 µM | TGI [10]: > 100 µM | TGI [11]: > 100 µM | TGI [12]: > 100 µM | TGI [13]: > 100 µM | TGI [14]: > 100 µM | TGI [15]: > 100 µM | TGI [16]: > 100 µM

COC(=O)C1(Cc2ccccc2)Cc2cc3c(cc2C1=O)CCC3 (stereo not drawn)
TGI [1]: > 100 µM | TGI [3]: 64.2 µM | TGI [4]: > 100 µM | TGI [5]: > 100 µM | TGI [6]: > 100 µM | TGI [7]: 92.6 µM | TGI [8]: 52.9 µM | TGI [9]: > 100 µM | TGI [10]: > 100 µM | TGI [11]: > 100 µM | TGI [12]: > 100 µM | TGI [13]: 35 µM | TGI [14]: 53.1 µM | TGI [15]: 81.6 µM | TGI [16]: > 100 µM

Cc1ccc2c(c1C)CC1(Cc3c(ccc4c3CCC4)C1=O)C2=O (stereo not drawn)
TGI [1]: > 100 µM | TGI [2]: > 100 µM | TGI [3]: > 100 µM | TGI [4]: > 100 µM | TGI [5]: > 100 µM | TGI [6]: > 100 µM | TGI [7]: > 100 µM | TGI [8]: > 100 µM | TGI [9]: > 100 µM | TGI [10]: > 100 µM | TGI [11]: > 100 µM | TGI [12]: > 100 µM | TGI [13]: > 100 µM | TGI [14]: > 100 µM | TGI [15]: > 100 µM | TGI [16]: > 100 µM

COc1ccc(-c2c(C#N)c(S)n(C3OC(COC(C)=O)C(OC(C)=O)C(OC(C)=O)C3OC(C)=O)c(=O)c2C#N)cc1 (stereo not drawn)
TGI [1]: > 100 µM and 80.9 µM | TGI [2]: 56.4 µM and 98.8 µM | GI50 [3]: 88.4 µM and 29.7 µM | TGI [3]: > 100 µM and 65.4 µM | TGI [4]: > 100 µM and 77.6 µM | TGI [5]: > 100 µM | TGI [6]: 74.4 µM and 79 µM | TGI [7]: > 100 µM | TGI [8]: > 100 µM | TGI [9]: 97.9 µM and 61.9 µM | TGI [10]: > 100 µM | TGI [11]: > 100 µM | TGI [12]: 60.6 µM and 89 µM | TGI [13]: > 100 µM | GI50 [14]: 91.5 µM and 20 µM | TGI [14]: > 100 µM and 36.1 µM | TGI [15]: > 100 µM | GI50 [16]: 21.7 µM and 55 µM | TGI [16]: 83.5 µM and > 100 µM

CCN(CC)CCOC(c1cc(OC)ccc1OC)c1ccc2n1-c1ccccc1OC2 (stereo not drawn)
TGI [1]: 36.9 µM | TGI [2]: 30 µM | TGI [3]: 30 µM | TGI [4]: 31.9 µM | TGI [5]: 13.9 µM | TGI [6]: 25.2 µM | TGI [7]: 14.6 µM | TGI [8]: 17.2 µM | TGI [9]: 7.75 µM | TGI [10]: 26.9 µM | TGI [11]: 26.7 µM | TGI [12]: 17.3 µM | TGI [13]: 26.2 µM | TGI [14]: 26 µM | TGI [15]: 34.2 µM | TGI [16]: 5.46 µM
